In US20260232750A1, “COMPOSITION AND METHOD FOR INHIBITING ADVANCED GLYCATION END PRODUCTS” (ACCESS BUSINESS GROUP INTERNATIONAL LLC, priority 2022, published 2026):
Entries after “also recorded” stand apart in the source; their conditions may differ.

Experiments:
Assay type in all cases: biochemical
[1] = Online UPLC-PDA-MS-ABTS·+ scavenging (post-column derivatisation); conditions: online profiling of DOF extract
Method: Online identification of antioxidant components of DOF extract was performed using a UPLC system (Milford, MA, USA) consisting of a Waters photodiode array detector and a Waters postcolumn derivatisation system supplying fresh ABTS solution (UPLC-PDA-QDa-ABTS). […] The detection wavelengths were set at 280 and 734 nm, and the injection volume of the sample was 10 μl.
To detect radical scavengers, the UPLC system was coupled with a Waters pump, which supplied freshly prepared ABTS·+ solution into a reaction coil (15 m, 0.25 mm ID) with a flow rate of 0.2 ml/min at 37° C. Negative peaks were recorded based on a decrease of absorbance at 729 nm after the reaction of individual compounds with the ABTS·+ radical. For preliminary identification of compounds, a Waters Acquity QDa mass detector in negative ionisation mode was connected in series to PDA with the following parameters: electrospray ion source; cone voltage, 15 V; atomiser, N2; and scanning range, 100-800 m/z.

COX-2 = target: T1, COX-2 (Homo sapiens, UniProt P35354); assay: Anti-COX-2 assay (COX-2 Inhibitor Screening Kit)
T1 construct: purchased Beyotime S0168
T1 sequence (P35354 18-604): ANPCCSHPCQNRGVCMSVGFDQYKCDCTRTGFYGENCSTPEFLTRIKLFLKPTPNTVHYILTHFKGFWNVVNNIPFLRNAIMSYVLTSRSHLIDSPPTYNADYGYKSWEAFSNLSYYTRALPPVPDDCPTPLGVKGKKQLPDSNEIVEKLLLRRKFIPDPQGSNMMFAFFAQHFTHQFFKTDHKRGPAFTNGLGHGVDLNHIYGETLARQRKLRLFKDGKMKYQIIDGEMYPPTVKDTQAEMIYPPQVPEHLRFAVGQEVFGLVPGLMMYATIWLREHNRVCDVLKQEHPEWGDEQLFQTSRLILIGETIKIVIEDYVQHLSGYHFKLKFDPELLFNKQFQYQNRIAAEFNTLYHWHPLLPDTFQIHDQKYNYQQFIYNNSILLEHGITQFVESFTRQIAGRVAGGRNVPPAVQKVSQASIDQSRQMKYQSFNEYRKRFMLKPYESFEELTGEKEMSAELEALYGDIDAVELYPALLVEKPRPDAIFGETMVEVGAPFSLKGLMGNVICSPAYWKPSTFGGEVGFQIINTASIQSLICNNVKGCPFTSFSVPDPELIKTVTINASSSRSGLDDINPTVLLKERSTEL
Method: Anti-inflammatory activity was assessed by measuring COX-2 enzymatic inhibition on the basis of a described method by using the COX-2 Inhibitor Screening Kit (Beyotime, No. S0168). Celecoxib, a COX-2 inhibitor, was used as a positive control.

DPPH· scavenging assay = assay: DPPH· scavenging assay
[2] = FRAP total antioxidant capacity assay
Method: Fast colourimetric methods were slightly modified for the in vitro assessment of DPPH· scavenging, ABTS·+ decolourisation capacity, and total antioxidant capacity of FRAP. The stock solutions of derivatisation reagents were diluted as follows before measurement: DPPH was diluted with absolute ethanol until the absorbance was 0.8±0.05 at λ=517 nm. ABTS working solution was prepared with phosphate buffer (0.2 M, pH 7.4) to display absorbance of 0.8±0.05 at λ=729 nm, based on a previous study. The FRAP solution was prepared according to the instructions of the FRAP kit. Absorbances were measured using an automatic microplate reader (Molecular Group Ltd., USA), and all analyses were performed using 96-well plates. All measurements were performed in triplicate, and Trolox was used as a positive control.
For total antioxidant capacity, 180 μl of FRAP solution was mixed with 5 μl of sample solution, and the absorbance was measured after 5 min at […] with PBS as the negative control. FeSO4 solutions (0.15, 0.3, 0.6, 0.9, 1.2, and 1.5 mM) were used for the calibration curve. The FRAP value represents the corresponding concentration of FeSO4 solutions (mM FeSO4). The regression equation from the standard curve was used to calculate the equivalent concentration 1 (EC1) of each sample. EC1 is defined as the concentration of the test sample with an absorbance equivalent to that of 1.0 mmol/L of FeSO4 solution, determined by its calibration curve.

Question: Which “ABTS radical scavenging by size of negative peaks at 734 nm (in words)” value [1] does the source give for `O=C(/C=C/c1ccc(O)c(O)c1)O[C@@H]1O[C@H](CO)[C@@H](O)[C@H](O)[C@H]1O` [Compound 5, 1-O-caffeoyl-β-D-glucoside] here?
Answer: The value was “strongest ABTS radical scavengers”.

Question: With `O=c1cc(-c2ccc(O)cc2)oc2c([C@@H]3O[C@H](CO)[C@@H](O)[C@H](O)[C@H]3O)c(O)c([C@@H]3O[C@H](CO)[C@@H](O)[C@H](O)[C@H]3O)c(O)c12` [Compound 10, Vicenin-2] as the compound, how does the “COX-2 inhibition (in words)” value (COX-2) read?
Answer: The value was “no inhibitory effects”.

Question: What about the “ABTS radical scavenging by size of negative peaks at 734 nm (in words)” value [1] of the same compound?
Answer: Its value is “strongest ABTS radical scavengers”.

Question: Which results are given for `O=c1cc(-c2ccc(O)c(O)c2)oc2c(C3OC(CO)C(O)C(O)C3O)c(O)c(C3OCC(O)C(O)C3O)c(O)c12` [Compound 11, Luteolin-6-C-β-D-xyloside-8-C-β-D-glucoside]?
Answer: COX-2 inhibition (in words) (COX-2): great COX-2 inhibition; also recorded: outstanding COX-2 inhibitory effects; antioxidant ability by DPPH (in words) (DPPH· scavenging assay): great antioxidant potency; antioxidant ability by FRAP (in words) [2]: great antioxidant potency; FRAP EC1 (mM) ([2]; Table 11, mean ± SD, n = 3): 1,009.1 µM; ABTS radical scavenging by size of negative peaks at 734 nm (in words) [1]: strongest ABTS radical scavengers

Question: With `O=c1cc(-c2ccc(O)c(O)c2)oc2c(C3OCC(O)C(O)C3O)c(O)c(C3OC(CO)C(O)C(O)C3O)c(O)c12` [Compound 15, Luteolin-6-C-β-D-glucoside-8-C-β-D-xyloside] as the compound, how does the “COX-2 inhibition (in words)” value (COX-2) read?
Answer: Its value is “great COX-2 inhibition; also recorded: outstanding COX-2 inhibitory effects”.

Question: What about the “antioxidant ability by DPPH (in words)” value (DPPH· scavenging assay) of the same compound?
Answer: The value was “great antioxidant potency”.

Question: What about the “antioxidant ability by FRAP (in words)” value [2] of the same compound?
Answer: The value was “great antioxidant potency”.

Question: And the “FRAP EC1 (mM)” value ([2]; Table 11, mean ± SD, n = 3)?
Answer: The value was 1,100.3 µM.

Question: For `O=c1cc(-c2ccc(O)cc2)oc2c([C@@H]3OC[C@H](O)[C@H](O)[C@H]3O)c(O)c([C@@H]3O[C@H](CO)[C@@H](O)[C@H](O)[C@H]3O)c(O)c12` [Compound 17, Schaftoside], which “COX-2 inhibition (in words)” value (COX-2) is on record?
Answer: The value was “no inhibitory effects”.

Question: Which “COX-2 inhibition (in words)” value (COX-2) does the source give for `O=c1cc(-c2ccc(O)c(O)c2)oc2cc(O)c(C3OC(CO)C(O)C(O)C3O)c(O)c12` [Compound 18, Luteolin-6-C-β-D-glucoside] here?
Answer: The value was “great COX-2 inhibition; also recorded: outstanding COX-2 inhibitory effects”.

Question: And the “antioxidant ability by DPPH (in words)” value (DPPH· scavenging assay)?
Answer: Its value is “great antioxidant potency”.

Question: And the “antioxidant ability by FRAP (in words)” value [2]?
Answer: The value was “great antioxidant potency”.

Question: What about the FRAP EC1 ([2]; Table 11, mean ± SD, n = 3) of the same compound?
Answer: Its FRAP EC1 is 507 µM.

Question: With `O=c1cc(-c2ccc(O)cc2)oc2c([C@@H]3OC[C@@H](O)[C@H](O)[C@H]3O)c(O)c([C@@H]3O[C@H](CO)[C@@H](O)[C@H](O)[C@H]3O)c(O)c12` [Compound 19, Vicenin-3] as the compound, how does the “COX-2 inhibition (in words)” value (COX-2) read?
Answer: The value was “no inhibitory effects”.

Question: What does the source list for `O=c1cc(-c2ccc(O)cc2)oc2c([C@H]3OC[C@H](O)[C@H](O)[C@H]3O)c(O)c([C@@H]3O[C@H](CO)[C@@H](O)[C@H](O)[C@H]3O)c(O)c12` [Compound 21, Neoschaftoside]?
Answer: antioxidant ability by DPPH (in words) (DPPH· scavenging assay): great antioxidant potency; antioxidant ability by FRAP (in words) [2]: great antioxidant potency

Question: Which results are given for `O=c1cc(-c2ccc(O)cc2)oc2c([C@@H]3OC[C@@H](O)[C@H](O)[C@H]3O)c(O)c([C@@H]3OC[C@H](O)[C@H](O)[C@H]3O)c(O)c12` [Compound 26, Apigenin-6-C-α-L-arabinoside-8-C-β-D-xyloside]?
Answer: COX-2 inhibition (in words) (COX-2): no inhibitory effects; FRAP EC1 (mM) ([2]; Table 11, mean ± SD, n = 3): >5,000 µM

Question: With `CC1OC(OCC2OC(Oc3c(-c4ccc(O)cc4)oc4cc(O)cc(O)c4c3=O)C(O)C(O)C2O)C(O)C(O)C1O` (stereo not drawn) [Compound 28, Kaempferol-3-O-rutinoside] as the compound, how does the “COX-2 inhibition (in words)” value (COX-2) read?
Answer: The value was “no inhibitory effects”.

Question: With `O=c1c(O[C@@H]2O[C@H](CO)[C@@H](O)[C@H](O)[C@H]2O)c(-c2ccc(O)cc2)oc2cc(O)cc(O)c12` [Compound 31, Astragalin] as the compound, how does the “COX-2 inhibition (in words)” value (COX-2) read?
Answer: Its value is “no inhibitory effects”.

Question: Which IC50 (COX-2) does the source give for `COc1cc(-c2oc3cc(O)cc(O)c3c(=O)c2O[C@@H]2O[C@H](CO)[C@@H](O)[C@H](O)[C@H]2O)ccc1O` [Compound 32, Isorhamnetin-3-O-glucoside] here?
Answer: The IC50 was 535 ± 150 µM.

Question: What about the IC50 (DPPH· scavenging assay) of the same compound?
Answer: Its IC50 is 2370 µM.

Question: And the “EC1 of FRAP” value [2]?
Answer: The value was 2,757.3±103.8 μM.
